Test results from patent publication US10828271B2, “Method for treating pleuroperitoneal membrane cancers by locally injecting disulfiram preparation” (NUOMA (BEIJING) TECHNOLOGY CO., LTD, priority 2016, dated 2020).
Where two headings read alike, the source gives them in different places.

Key:
[1] = Anticancer activity of disulfiram metabolites (unpublished data); conditions: unpublished data of the applicant
[2] = oral dose of 500 mg; cited from earlier work
[3] = tested on: SKVO-3 ovarian cancer cells; test: Peritoneal ovarian cancer model in CD1 nude mice; type: in vivo, mouse
Protocol: (§2) MSTO mesothelioma cells and SKVO-3 ovarian cancer cells were cultured in a DMEM medium containing 10% fetal calf serum supplemented with 10 mg/ml streptomycin and 2 mmol/L L-glutamine at 37° C. under a 5% CO2 atmosphere.
(§3) MSTO mesothelioma cells and SKVO-3 ovarian cancer cells were injected at a rate of 3×10^6/animal into female CD1 nude mice and animals were randomly divided into two groups (10 animals/group). […] Drug administration was performed three times per week. The mice were weighed three times per week. Once the experiment was complete, the animals were sacrificed via cervical dislocation. The abdominal cavities of all mice were opened to observe and assess ascites formation and abdominal wall tumors.

S180 ascites tumor cells = conditions: for Formation of ascites and masses at laparotomy: three weeks after cell injection
Protocol: S180 ascites cells were purchased from the Chinese Academy of Sciences Shanghai Cell Bank and cultured in a DMEM medium containing 10% fetal calf serum supplemented with 10 mg/ml streptomycin and 2 mmol/L L-glutamine at 37° C. under a 5% CO2 atmosphere.
S-180 cells were injected at a rate of 2.5×10^6/animal into the abdominal cavity of male Kunming mice and the animals were randomly divided into two groups (8 animals/group). […] Drug administration was performed three times per week. The mice were weighed three times per week. Once the experiment was complete, the animals were sacrificed via cervical dislocation. The abdominal cavities of all mice were opened to observe and assess ascites formation and abdominal wall tumors.

[4] = absorbed disulfiram in the bloodstream; cited from earlier work
MSTO mesothelioma cells [5] = test: Peritoneal MSTO mesothelioma model in CD1 nude mice; type: in vivo, mouse
Protocol: as §2, §3

E58 mesothelioma cells = test: MTT cell survival assay, E58 mesothelioma cells; type: cell-based, human; conditions: for Synergy index CI at ED50, E58 / Synergy index CI at ED75, E58 / Synergy index CI at ED90, E58: named drug combined with DS + Cu
Protocol: (§1) Separate incubations were performed with pemetrexed, DS/Cu (disulfiram/copper gluconate) and cisplatin for 3 days. Cell survival was determined via an MTT assay.

Ju77 mesothelioma cells = test: MTT cell survival assay, Ju77 mesothelioma cells; type: cell-based, human; conditions: for IC50: Ju77 cells, 3 days incubation, MTT, read-out: IC50s (nM), inhibition of mesothelioma growth, Ju77; for Synergy index CI at ED50, Ju77 / Synergy index CI at ED75, Ju77 / Synergy index CI at ED90, Ju77: named drug combined with DS + Cu
Protocol: as §1

MSTO mesothelioma cells [6] = test: MTT cell survival assay, MSTO mesothelioma cells; type: cell-based, human; conditions: for IC50: MSTO cells, 3 days incubation, MTT, read-out: IC50s (nM), inhibition of mesothelioma growth, MSTO; for Synergy index CI at ED50, MSTO / Synergy index CI at ED75, MSTO / Synergy index CI at ED90, MSTO: named drug combined with DS + Cu
Protocol: as §1

2591 mesothelioma cells = test: MTT cell survival assay, 2591 mesothelioma cells; type: cell-based, human; conditions: for IC50: 2591 cells, 3 days incubation, MTT, read-out: IC50s (nM), inhibition of mesothelioma growth, 2591; for Synergy index CI at ED50, 2591 / Synergy index CI at ED75, 2591 / Synergy index CI at ED90, 2591: named drug combined with DS + Cu
Protocol: as §1

[7] = tested on: A2780 ovarian cancer cells; test: Cell survival assay, A2780 ovarian cancer cells; type: cell-based, human
[8] = tested on: SKOV-3 ovarian cancer cells; test: Cell survival assay, SKOV-3 ovarian cancer cells; type: cell-based, human; conditions: cisplatin (CDDP) combined with DS + Cu
[9] = disulfiram 5 mg/kg i.p. + CuGlu 5 mg/kg oral, three times per week, Day 21
[10] = disulfiram 40 μg/animal i.p. + CuGlu oral, as of Day 90

methylated disulfiram
Anticancer activity [1]: completely loses its anticancer activity

CCN(CC)C(=S)SSC(=S)N(CC)CC [disulfiram]
Blood concentration [2]: below the detection limit
Survival rate, ovarian cancer mice ([3]; disulfiram 40 μg/animal (2 mg/kg) i.p. + CuGlu 5 mg/kg oral, Day 60): 90%
Cancer nodules / masses, ovarian cancer mice ([3]; disulfiram 40 μg/animal i.p. + CuGlu oral, Day 60): only a small number of masses had formed
Ascites, ovarian cancer mice ([3]; disulfiram 40 μg/animal i.p. + CuGlu oral, as of Day 60): did not reveal any ascites
Mean ascites volume per mouse (S180 ascites tumor cells; [9]): 0 ml per mouse
Number of cancer nodules per mouse (S180 ascites tumor cells; [9]): 0 nodules per mouse
Formation of ascites and masses at laparotomy (S180 ascites tumor cells; disulfiram 5 mg/kg i.p. + CuGlu 5 mg/kg oral): no formation of ascites or masses was observed
Formation of ascites and masses at laparotomy (S180 ascites tumor cells; disulfiram 5 mg/kg i.p. + CuGlu 5 mg/kg oral, listed as DS): no formation of ascites or tumor nodules
Effect on peritoneal metastasis (S180 ascites tumor cells; disulfiram 5 mg/kg i.p. with oral copper gluconate, S180 tumor-bearing mice): completely eliminate the animals' peritoneal metastasis
Body weight compared with control group (S180 ascites tumor cells; one week after injection of the cells): significantly lower than that of mice in the control group
Half-life of reduction by the glutathione reductase system in red blood cells [4]: 4 min
Survival rate, mesothelioma mice (MSTO mesothelioma cells [5]; disulfiram 40 μg/animal (2 mg/kg) i.p. + CuGlu 5 mg/kg oral, Day 90): 60%
Ascites, mesothelioma mice (MSTO mesothelioma cells [5]; [10]): did not reveal any ascites
Cancer nodules / masses, mesothelioma mice (MSTO mesothelioma cells [5]; [10]): only a small number of masses had formed

CCN(CC)C(=S)SC1OC(C(=O)O)C(O)C(O)C1O (stereo not shown) [glucuronic acid DDC]
Anticancer activity [1]: completely lack any anticancer activity

[NH2][Pt]([NH2])([Cl])[Cl] [CDDP, cisplatin]
Synergy index CI at ED50, E58 (E58 mesothelioma cells): 0.385
Synergy index CI at ED75, E58 (E58 mesothelioma cells): 0.355
Synergy index CI at ED90, E58 (E58 mesothelioma cells): 0.449
IC50 (Ju77 mesothelioma cells): 8790 nM
Synergy index CI at ED50, Ju77 (Ju77 mesothelioma cells): 0.389
Synergy index CI at ED75, Ju77 (Ju77 mesothelioma cells): 0.346
Synergy index CI at ED90, Ju77 (Ju77 mesothelioma cells): 0.319
IC50 (MSTO mesothelioma cells [6]): 4590 nM
Synergy index CI at ED50, MSTO (MSTO mesothelioma cells [6]): 0.567
Synergy index CI at ED75, MSTO (MSTO mesothelioma cells [6]): 0.320
Synergy index CI at ED90, MSTO (MSTO mesothelioma cells [6]): 0.209
IC50 (2591 mesothelioma cells): 9160 nM
Synergy index CI at ED50, 2591 (2591 mesothelioma cells): 0.777
Synergy index CI at ED75, 2591 (2591 mesothelioma cells): 0.868
Synergy index CI at ED90, 2591 (2591 mesothelioma cells): 1.170
IC50 ([7]; A2780 cells, 3 days incubation, read-out: IC50s (nM), ovarian cancer cells, A2780): 4590 nM
Synergy index CI at ED50, A2780 ([7]; cisplatin (CDDP) combined with DS + Cu, ED50, A2780): 0.567
Synergy index CI at ED75, A2780 ([7]; cisplatin (CDDP) combined with DS + Cu, ED75, A2780): 0.320
Synergy index CI at ED90, A2780 ([7]; cisplatin (CDDP) combined with DS + Cu, ED90, A2780): 0.209
Synergy index CI at ED50, SKOV-3 ([8]; ED50): 0.389
Synergy index CI at ED75, SKOV-3 ([8]; ED75): 0.346
Synergy index CI at ED90, SKOV-3 ([8]; ED90): 0.319

Nc1nc2[nH]cc(CCc3ccc(C(=O)N[C@@H](CCC(=O)O)C(=O)O)cc3)c2c(=O)[nH]1 [PMTX, pemetrexed]
IC50 (E58 mesothelioma cells; Homo sapiens, 72 h, E58 cells, 3 days incubation, MTT, read-out: IC50s (nM), inhibition of mesothelioma growth, E58): > 1000 nM
Synergy index CI at ED50, E58 (E58 mesothelioma cells): 0.383
Synergy index CI at ED75, E58 (E58 mesothelioma cells): 0.384
Synergy index CI at ED90, E58 (E58 mesothelioma cells): 0.503
IC50 (Ju77 mesothelioma cells; Homo sapiens, 72 h): > 1000 nM
Synergy index CI at ED50, Ju77 (Ju77 mesothelioma cells): 0.308
Synergy index CI at ED75, Ju77 (Ju77 mesothelioma cells): 0.431
Synergy index CI at ED90, Ju77 (Ju77 mesothelioma cells): 0.603
IC50 (MSTO mesothelioma cells [6]; Homo sapiens, 72 h): 920 nM
Synergy index CI at ED50, MSTO (MSTO mesothelioma cells [6]): 0.399
Synergy index CI at ED75, MSTO (MSTO mesothelioma cells [6]): 0.196
Synergy index CI at ED90, MSTO (MSTO mesothelioma cells [6]): 0.102
IC50 (2591 mesothelioma cells; Homo sapiens, 72 h): > 1000 nM
Synergy index CI at ED50, 2591 (2591 mesothelioma cells): 0.341
Synergy index CI at ED75, 2591 (2591 mesothelioma cells): 0.253
Synergy index CI at ED90, 2591 (2591 mesothelioma cells): 0.603

CCN(CC)C(=S)SC [methyl DDC]
Anticancer activity [1]: completely lack any anticancer activity
